Like-named read-outs stand apart in the source and are kept apart here.
Tests used:
Biodistribution in rats = type: in vivo, male Sprague-Dawley rats; settings: rat; for in vivo metabolic defluorination (bone activity): 5 to 60 min p.i.; for blood uptake / bone uptake / brain uptake / fat uptake / kidney uptake / liver uptake / muscle uptake: iv, mean ± SD, n = 4
PDE10A [1] = target: PDE10A (Rattus norvegicus, UniProt Q9QYJ6); settings: by 30 min p.i.
[2] = for % peak 1 (radiometabolite, retention time ~3.5 min) / % peak 2 (radiometabolite, retention time ~7.5 min): NHP plasma
PDE10A [3] = test system: PDE10A

Sequence of PDE10A (Rattus norvegicus, UniProt Q9QYJ6) (Q9QYJ6 whole entry): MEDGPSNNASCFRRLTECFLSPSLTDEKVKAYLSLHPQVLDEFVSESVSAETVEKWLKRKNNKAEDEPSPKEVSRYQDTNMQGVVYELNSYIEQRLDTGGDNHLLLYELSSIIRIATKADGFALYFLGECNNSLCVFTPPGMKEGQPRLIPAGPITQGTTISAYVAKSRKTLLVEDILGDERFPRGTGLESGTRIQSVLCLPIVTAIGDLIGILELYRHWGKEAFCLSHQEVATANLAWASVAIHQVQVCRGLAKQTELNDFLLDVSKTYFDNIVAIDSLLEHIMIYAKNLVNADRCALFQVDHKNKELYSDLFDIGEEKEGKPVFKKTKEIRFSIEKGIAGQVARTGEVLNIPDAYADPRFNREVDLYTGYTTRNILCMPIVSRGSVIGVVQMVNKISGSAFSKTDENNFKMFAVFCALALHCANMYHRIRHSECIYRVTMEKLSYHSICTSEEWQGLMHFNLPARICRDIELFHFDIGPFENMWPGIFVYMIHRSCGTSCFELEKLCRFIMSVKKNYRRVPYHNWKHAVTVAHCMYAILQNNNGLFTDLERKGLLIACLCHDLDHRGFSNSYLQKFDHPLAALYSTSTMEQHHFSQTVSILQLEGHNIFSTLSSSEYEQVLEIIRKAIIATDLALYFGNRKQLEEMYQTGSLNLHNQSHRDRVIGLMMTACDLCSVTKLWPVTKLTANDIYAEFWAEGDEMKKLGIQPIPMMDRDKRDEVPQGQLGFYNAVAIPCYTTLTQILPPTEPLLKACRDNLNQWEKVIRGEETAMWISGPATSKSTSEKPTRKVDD

Row | blood uptake (Biodistribution in rats; 5 min p.i.) [%ID/g] | bone uptake (Biodistribution in rats; 5 min p.i.) [%ID/g] | brain uptake (Biodistribution in rats; 5 min p.i.) [%ID/g] | fat uptake (Biodistribution in rats; 5 min p.i.) [%ID/g] | kidney uptake (Biodistribution in rats; 5 min p.i.) [%ID/g] | liver uptake (Biodistribution in rats; 5 min p.i.) [%ID/g] | muscle uptake (Biodistribution in rats; 5 min p.i.) [%ID/g] | bone uptake (Biodistribution in rats; 30 min p.i.) [%ID/g] | brain uptake (Biodistribution in rats; 30 min p.i.) [%ID/g] | fat uptake (Biodistribution in rats; 30 min p.i.) [%ID/g] | kidney uptake (Biodistribution in rats; 30 min p.i.) [%ID/g] | liver uptake (Biodistribution in rats; 30 min p.i.) [%ID/g] | muscle uptake (Biodistribution in rats; 30 min p.i.) [%ID/g] | bone uptake (Biodistribution in rats; 60 min p.i.) [%ID/g] | brain uptake (Biodistribution in rats; 60 min p.i.) [%ID/g] | fat uptake (Biodistribution in rats; 60 min p.i.) [%ID/g] | kidney uptake (Biodistribution in rats; 60 min p.i.) [%ID/g] | liver uptake (Biodistribution in rats; 60 min p.i.) [%ID/g] | muscle uptake (Biodistribution in rats; 60 min p.i.) [%ID/g] | Structure (SMILES) | in vivo metabolic defluorination (bone activity) (Biodistribution in rats) | further results
1 | – | – | – | – | – | – | – | – | – | – | – | – | – | – | – | – | – | – | – | Cn1cc(-c2ccncc2)c(-c2ccc(OCc3cc(F)c4ccccc4n3)cc2)n1 [Compound 18a, 4-Fluoro-2-((4-(1-methyl-4-(pyridin-4-yl)-1H-pyrazol-3-yl)-phenoxy)methyl)quinoline] | undergo in vivo metabolic defluorination in rodents | –
2 | – | – | – | – | – | – | – | – | – | – | – | – | – | – | – | – | – | – | – | Cn1cc(-c2ccncc2)c(-c2ccc(OCc3cc(CF)c4ccccc4n3)cc2)n1 [Compound 18b, 4-(Fluoromethyl)-2-((4-(1-methyl-4-(pyridin-4-yl)-1H-pyrazol-3-yl)phenoxy)methyl) quinoline] | undergo in vivo metabolic defluorination in rodents | –
3 | – | – | – | – | – | – | – | – | – | – | – | – | – | – | – | – | – | – | – | Cn1cc(-c2ccncc2)c(-c2ccc(OCc3cc(CCCF)c4ccccc4n3)cc2)n1 [Compound 18c, 4-(3-Fluoropropyl)-2-((4-(1-methyl-4-(pyridin-4-yl)-1H-pyrazol-3-yl)phenoxy)methyl) quinoline] | undergo in vivo metabolic defluorination in rodents | –
4 | 0.353 ± 0.063 | 0.522 ± 0.116 | 0.410 ± 0.063 | 0.404 ± 0.102 | 1.887 ± 0.296 | 6.87 ± 1.27 | 0.339 ± 0.053 | 4.035 ± 0.153 | 0.191 ± 0.036 | 0.576 ± 0.154 | 1.034 ± 0.131 | 3.00 ± 0.91 | 0.236 ± 0.019 | 6.300 ± 0.314 | 0.125 ± 0.009 | 0.477 ± 0.099 | 0.533 ± 0.119 | 1.60 ± 0.87 | 0.092 ± 0.010 | Cn1cc(-c2ccncc2)c(-c2ccc(OCc3cc([18F])c4ccccc4n3)cc2)n1 [[^18F]18a, 4-(Fluoro-^18F)-2-((4-(1-methyl-4-(pyridin-4-yl)-1H-pyrazol-3-yl)phenoxy)methyl)quinoline] | – | ratio of activity in the striatum versus nontarget brain regions (PDE10A [1]): > 2 fold; blood uptake (Biodistribution in rats; 30 min p.i.): 0.376 ± 0.033 %ID/g; blood uptake (Biodistribution in rats; 60 min p.i.): 0.150 ± 0.021 %ID/g
5 | 0.471 ± 0.040 | 0.421 ± 0.063 | 0.128 ± 0.012 | 0.343 ± 0.153 | 1.799 ± 0.207 | 10.16 ± 1.86 | 0.227 ± 0.042 | 4.055 ± 1.305 | 0.094 ± 0.023 | 0.352 ± 0.081 | 1.351 ± 0.216 | 4.01 ± 1.34 | 0.174 ± 0.042 | 5.620 ± 1.132 | 0.069 ± 0.008 | 0.222 ± 0.029 | 0.573 ± 0.134 | 3.10 ± 0.61 | 0.107 ± 0.032 | Cn1cc(-c2ccncc2)c(-c2ccc(OCc3cc(C[18F])c4ccccc4n3)cc2)n1 [[^18F]18b, 4-((Fluoro-^18F)methyl)-2-((4-(1-methyl-4-(pyridin-4-yl)-1H-pyrazol-3-yl)phenoxy)methyl) quinoline] | – | ratio of activity in the striatum versus nontarget brain regions (PDE10A [1]): > 2 fold; blood uptake (Biodistribution in rats; 30 min p.i.): 0.416 ± 0.062 %ID/g; blood uptake (Biodistribution in rats; 60 min p.i.): 0.201 ± 0.026 %ID/g
6 | 0.459 ± 0.049 | 0.222 ± 0.014 | 0.114 ± 0.015 | 0.220 ± 0.100 | 2.471 ± 0.487 | 9.99 ± 1.27 | 0.223 ± 0.067 | 1.418 ± 0.182 | 0.046 ± 0.006 | 0.491 ± 0.035 | 1.364 ± 0.077 | 5.67 ± 0.73 | 0.178 ± 0.016 | 2.037 ± 0.303 | 0.026 ± 0.005 | 0.368 ± 0.077 | 1.216 ± 0.180 | 6.79 ± 2.49 | 0.103 ± 0.030 | Cn1cc(-c2ccncc2)c(-c2ccc(OCc3cc(CCC[18F])c4ccccc4n3)cc2)n1 [[^18F]18c, 4-(3-(Fluoro-^18F)propyl)-2-((4-(1-methyl-4-(pyridin-4-yl)-1H-pyrazol-3-yl)phenoxy)methyl) quinoline] | – | ratio of activity in the striatum versus nontarget brain regions (PDE10A [1]): > 2 fold
7 | 0.362 ± 0.048 | 0.189 ± 0.004 | 0.118 ± 0.012 | 0.213 ± 0.007 | 2.200 ± 0.158 | 6.88 ± 1.15 | 0.247 ± 0.031 | 0.091 ± 0.012 | 0.078 ± 0.009 | 0.302 ± 0.033 | 1.055 ± 0.218 | 6.98 ± 0.99 | 0.134 ± 0.019 | 0.142 ± 0.001 | 0.101 ± 0.002 | 0.259 ± 0.025 | 0.765 ± 0.153 | 3.29 ± 0.56 | 0.132 ± 0.011 | Cn1cc(-c2ccncc2)c(-c2ccc(OCc3cc(OCC[18F])c4ccccc4n3)cc2)n1 [[^18F]18d, 4-((2-Fluoro-^18F)ethoxy)-2-((4-(1-methyl-4-(pyridin-4-yl)-1H-pyrazol-3-yl)phenoxy)methyl)quinoline] | appeared more stable to in vivo defluorination | ratio of activity in the striatum versus nontarget brain regions (PDE10A [1]): > 2 fold; % peak 1 (radiometabolite, retention time ~3.5 min) ([2]; 2 min p.i.): 1%; % peak 2 (radiometabolite, retention time ~7.5 min) ([2]; 2 min p.i.): 0%; % peak 1 (radiometabolite, retention time ~3.5 min) ([2]; 15 min p.i.): 4%; % peak 2 (radiometabolite, retention time ~7.5 min) ([2]; 15 min p.i.): 0%; % peak 1 (radiometabolite, retention time ~3.5 min) ([2]; 30 min p.i.): 7%; % peak 2 (radiometabolite, retention time ~7.5 min) ([2]; 30 min p.i.): 1%; % peak 1 (radiometabolite, retention time ~3.5 min) ([2]; 60 min p.i.): 19%; % peak 2 (radiometabolite, retention time ~7.5 min) ([2]; 60 min p.i.): 5%; % peak 1 (radiometabolite, retention time ~3.5 min) ([2]; 90 min p.i.): 32%; % peak 2 (radiometabolite, retention time ~7.5 min) ([2]; 90 min p.i.): 9%; radioactivity of arterial blood found in the plasma ([2]; plasma separated from packed red cells): 65–75%; ratios of uptake in the striatum vs nontarget brain regions (PDE10A [3]; cynomolgus macaque microPET, by 40 min p.i.): > 3 fold; visualization of striatum in microPET (PDE10A [3]; cynomolgus macaque, summed images 0 to 180 min): clear visualization of the PDE10A-enriched striatum; blood uptake (Biodistribution in rats; 30 min p.i.): 0.226 ± 0.073 %ID/g; blood uptake (Biodistribution in rats; 60 min p.i.): 0.215 ± 0.008 %ID/g
8 | 0.440 ± 0.038 | 0.133 ± 0.028 | 0.213 ± 0.039 | 0.139 ± 0.031 | 0.981 ± 0.163 | 3.99 ± 0.82 | 0.155 ± 0.040 | 0.170 ± 0.030 | 0.353 ± 0.021 | 0.139 ± 0.037 | 0.632 ± 0.123 | 0.987 ± 0.038 | 0.265 ± 0.117 | 0.337 ± 0.072 | 0.343 ± 0.033 | 0.066 ± 0.018 | 0.485 ± 0.045 | 0.554 ± 0.064 | 0.228 ± 0.058 | Cn1cc(-c2ccncc2)c(-c2ccc(OCc3cc(COCC[18F])c4ccccc4n3)cc2)n1 [[^18F]18e, 4-((2-(Fluoro-^18F)ethoxy)methyl)-2-((4-(1-methyl-4-(pyridin-4-yl)-1H-pyrazol-3-yl)phenoxy)methyl)quinoline] | appeared more stable to in vivo defluorination | blood uptake (Biodistribution in rats; 30 min p.i.): 0.424 ± 0.074 %ID/g; blood uptake (Biodistribution in rats; 60 min p.i.): 0.401 ± 0.029 %ID/g

Row | Structure (SMILES) | blood uptake (Biodistribution in rats; 5 min p.i.) [%ID/g] | bone uptake (Biodistribution in rats; 5 min p.i.) [%ID/g] | brain uptake (Biodistribution in rats; 5 min p.i.) [%ID/g] | fat uptake (Biodistribution in rats; 5 min p.i.) [%ID/g] | kidney uptake (Biodistribution in rats; 5 min p.i.) [%ID/g] | liver uptake (Biodistribution in rats; 5 min p.i.) [%ID/g] | muscle uptake (Biodistribution in rats; 5 min p.i.) [%ID/g] | bone uptake (Biodistribution in rats; 30 min p.i.) [%ID/g] | brain uptake (Biodistribution in rats; 30 min p.i.) [%ID/g] | fat uptake (Biodistribution in rats; 30 min p.i.) [%ID/g] | kidney uptake (Biodistribution in rats; 30 min p.i.) [%ID/g] | liver uptake (Biodistribution in rats; 30 min p.i.) [%ID/g] | muscle uptake (Biodistribution in rats; 30 min p.i.) [%ID/g] | bone uptake (Biodistribution in rats; 60 min p.i.) [%ID/g] | brain uptake (Biodistribution in rats; 60 min p.i.) [%ID/g] | fat uptake (Biodistribution in rats; 60 min p.i.) [%ID/g] | kidney uptake (Biodistribution in rats; 60 min p.i.) [%ID/g] | liver uptake (Biodistribution in rats; 60 min p.i.) [%ID/g] | muscle uptake (Biodistribution in rats; 60 min p.i.) [%ID/g] | in vivo metabolic defluorination (bone activity) (Biodistribution in rats) | further results
9 | Cn1cc(-c2ccncc2)c(-c2ccc(OCc3cc(OCCOCCOCC[18F])c4ccccc4n3)cc2)n1 [[^18F]18g] | 0.699 ± 0.090 | 0.487 ± 0.044 | 0.353 ± 0.052 | 0.225 ± 0.086 | 5.969 ± 0.744 | 4.74 ± 1.10 | 0.419 ± 0.090 | 0.441 ± 0.049 | 0.509 ± 0.038 | 0.254 ± 0.051 | 1.793 ± 0.291 | 1.53 ± 0.49 | 0.488 ± 0.086 | 0.490 ± 0.035 | 0.421 ± 0.028 | 0.123 ± 0.021 | 1.037 ± 0.170 | 0.527 ± 0.068 | 0.379 ± 0.027 | appeared more stable to in vivo defluorination | blood uptake (Biodistribution in rats; 30 min p.i.): 0.771 ± 0.061 %ID/g; blood uptake (Biodistribution in rats; 60 min p.i.): 0.646 ± 0.045 %ID/g

Source: paper PMC4697445 (Journal of medicinal chemistry, 2015)
